Experimental data reported in ChEMBL document CHEMBL3507680, “University of Dundee, Gates Library screen for HepG2 cell viability”.

Experiment: Human HepG2 cell viability assay in 384 well format
Assay type: toxicity, cell-based
Design: dose 125 nL, time 70.5 hour; cytotoxicity at 70.5 h: concentration not given beside the values
Details: HepG2 cells, read-out: Inhibition

SMILES	cytotoxicity at 70.5 h
CCCC(=O)N1CCCC(c2cc3cccnc3c(O)n2)C1 (stereo not drawn)	-13.1%
Cn1ccc(C(=O)N2CCCC(c3cc4cccnc4c(O)n3)C2)n1 (stereo not drawn)	-9.08%
FC(F)(F)c1cc(C2CCNCC2)nc(-c2ccsc2)n1	-11.8%
CN1CCN(c2nc(O)cc(Cc3ccccc3F)n2)CC1	-4.68%
CCN1CCN(c2nc(O)cc(Cc3ccccc3F)n2)CC1	-0.665%
CC1(c2cc[nH]n2)CCN(C(=O)c2ccc(Cl)cc2)CC1	-4.57%
NC(=O)C1(Cc2ccc(-c3ccccc3)cc2)CCCNC1 (stereo not drawn)	-1.37%
CN1CCC(c2cncc(C(=O)NCc3ccc(F)cc3)n2)CC1	-5.99%
Oc1cc(CC2COCCN(CC3(O)CCOCC3)C2)ncn1 (stereo not drawn)	23%
CC(C)CCNC(=O)C1CCCN1C(=O)Nc1cccc(F)c1 (stereo not drawn)	-6.59%
COCCNc1nnc(-c2cnc(C)cn2)s1	-3.71%
c1cc(-c2cnc(NC3CC3)nc2[C@@H]2CCCO2)ccn1	-8.62%
CC(C)Nc1ncc(-c2ccncc2)c([C@@H]2CCCO2)n1	-8.69%
CC(=O)N1CCOC(c2c(C(=O)O)sc3ccccc23)C1 (stereo not drawn)	-7.22%
COc1ccccc1C1CNCCN1C(=O)c1ccc(F)cc1 (stereo not drawn)	0.353%
Cc1nc(C(=O)NCc2ccccn2)cc(C2CCCN2)n1 (stereo not drawn)	20.2%
CNC(=O)c1cccc(CC2COCCN(Cc3ccc(C)o3)C2)n1 (stereo not drawn)	-2.79%
NC(=O)c1ccccc1Oc1cccc(C2CCCNC2)n1 (stereo not drawn)	-4.29%
CC(C)CN1CCCC1c1cc[nH]n1 (stereo not drawn)	-1.98%
CCC(=O)N1CCN(C)C(=O)C(Cc2ccccc2-c2cccs2)C1 (stereo not drawn)	-1.38%
COCCN1CCC(c2ncc(C(=O)N3CCOCC3)c(C)n2)CC1	-1.72%
CC(C)(C)n1nnnc1CN(CCc1ccccc1)Cc1ccccc1	1.44%
Cc1nnsc1C(=O)N1CCCCC1c1cc2nc(C)c(C)c(O)n2n1 (stereo not drawn)	-2.13%
Fc1ccc(CN2CCC(c3noc(-c4cnccn4)n3)CC2)cc1F	-1.05%

SMILES	cytotoxicity at 70.5 h
Fc1ccccc1CN1CCC(c2noc(-c3ccccn3)n2)CC1	1.88%
O=C(C1CCOC1)N1Cc2ccccc2OC2(CCOCC2)C1 (stereo not drawn)	-2.81%
Fc1cccc(CN2CCC(c3noc(-c4ccncc4)n3)CC2)c1F	2.58%
COc1cc2cc3c(nc2cc1OC)OCCN(Cc1cccs1)C3	28%
COc1cccc(CNCc2nc3ccccc3c(=O)[nH]2)c1	1.76%
Cc1cnc(-c2nc(O)c3c(n2)CN(C(=O)C2CCOC2)CC3)cn1 (stereo not drawn)	-1.76%
Cc1cnc(-c2nc(O)c3c(n2)CN(C(=O)CC2CCCC2)CC3)cn1	-2.15%
CC1Cc2ccccc2N1C(=O)Cn1nc(-c2cccs2)cc(N)c1=O (stereo not drawn)	-3.41%
Cc1nc2cc(C(=O)N3CCn4c(nnc4C4CC4)C3)ccc2s1	-2.23%
c1cc(N2CCCCC2)ccc1-c1noc(CN2CCOCC2)n1	-0.0335%
Cc1nc2ccc(C(=O)N3CCC(COc4ccccn4)CC3)cc2[nH]1	44.6%
Cc1ccc(CNCCN2CCOCC2)o1	8.67%
CCNC(=O)C1(Cc2ccc(-c3ccccc3)cc2)CCCNC1 (stereo not drawn)	4.78%
CN1CCC(c2cccc(-c3cccc(C(=O)O)c3)n2)CC1	-8.16%
Clc1ccc(CN(CCN2CCOCC2)Cc2cccnc2)cc1Cl	-5.5%
Cc1ccc(N(C)[C@@H]2CC[C@@H]3CN(C(=O)C4CCOCC4)C[C@@H]32)nn1	-6.01%
O=C(Cc1ccc(O)cc1)N1CCCC(O)(CN2CCOCC2)CC1 (stereo not drawn)	-7.8%
CS(=O)(=O)N[C@@H]1CN(C(=O)c2cc3ccccc3s2)C[C@H]1O	19%
COc1ccc2[nH]cc(C(=O)N3C[C@@H](O)[C@H](NS(C)(=O)=O)C3)c2c1	-6.21%
OCCN1CCCCC1c1cc[nH]n1 (stereo not drawn)	-8.74%
CCOCC(=O)N1C[C@@H](O)[C@H](NC(C)=O)C1	-4.78%
CO[C@H]1CN(S(=O)(=O)c2ccc(C)cc2)C[C@@]12CCCO2	-6.6%
Cc1cc(CC2COCCN(CCc3ccccc3)C2)ncn1 (stereo not drawn)	17.8%
CCn1ccc2ccnc(CC3CN(C(=O)c4ccc(F)cc4)C3)c21	-6.52%

SMILES	cytotoxicity at 70.5 h
CC(=O)N1CCN([C@@H]2CN(C(=O)Cc3ccccc3C)C[C@H]2O)CC1	-2.44%
NC(=O)c1cnc(NCC(=O)NCc2ccco2)c(Cl)c1	-9.01%
CSc1cc2c(cc1NC(=O)NCc1ccncc1)OCCO2	2.15%
CSc1cc2c(cc1NC(=O)N(C)Cc1cnn(C)c1)OCCO2	2.84%
COCCN(C)C(=O)Nc1cc2c(cc1SC)OCCO2	10.9%
CC(NC1(CNS(C)(=O)=O)CCOCC1)c1ccccc1 (stereo not drawn)	-8.35%
CCCS(=O)(=O)NC(C)c1cccc(-n2cccn2)c1 (stereo not drawn)	-6.77%
Cc1nc(NC(=O)NCc2cccnc2NCCN(C)C)sc1C	-2.85%
CNC(=O)CNC(=O)Nc1ccc(Br)c(F)c1	-4.08%
CCC(NC(=O)c1ccco1)c1nc(C(F)(F)F)cs1 (stereo not drawn)	-6.77%
CC(=O)NCC(=O)N(CCc1ccccc1)C1CCOC1 (stereo not drawn)	-9.4%
N#Cc1cccc(OC2CCN(C(=O)c3cncc(O)c3)CC2)c1	-2.58%
Cc1nnc(NCc2ccc(Br)cc2)o1	-4.41%
Cc1nnc(NCc2ccc(Cl)cc2)o1	-6.23%
CC(NS(=O)(=O)CC1(C#N)CCCC1)c1cccc(-n2cccn2)c1 (stereo not drawn)	-3.64%
OCCCN1CCCC1c1ccc(Br)cc1 (stereo not drawn)	-9.27%
CNC(=O)c1cccc(CNC2CCCSc3ccccc32)c1 (stereo not drawn)	-5.82%
O=C(NCCc1nncn1C1CC1)C1(Cc2ccccc2)CCC1	-1.53%
CC(C(=O)N(C)Cc1ccc(Br)o1)n1cccn1 (stereo not drawn)	-4.49%
CC(OCC1CC1)C(=O)N1CCCN(c2cccnn2)CC1 (stereo not drawn)	-5.5%
CC(C)(CNC(=O)Nc1ccc(S(=O)(=O)C(F)F)cc1)N1CCOCC1	-7.87%
CS(=O)(=O)N1CCN(C(=O)CCC2CCCO2)CC1 (stereo not drawn)	-14.1%
N#Cc1cn(C2CC2)c(=O)n(Cc2noc(-c3cccs3)n2)c1=O	-4.93%
CC(OCc1ccccc1)C(=O)NC1CCN(CC(N)=O)CC1 (stereo not drawn)	-6.55%

SMILES	cytotoxicity at 70.5 h
COc1ccc(NC(=O)CN2CCS(=O)(=O)CC2)cn1	-10.4%
CC(=O)NC1CCCN(C(=O)CCc2cccnc2)C1 (stereo not drawn)	19.2%
Cc1ccc(F)c(S(=O)(=O)NCc2[nH]ncc2Br)c1	-10%
CC(C)(C)CC(=O)N1CSCC1C(=O)NC1=NCCS1 (stereo not drawn)	19.4%
CSCCC(C)NC(=O)c1cccc(-c2n[nH]c(C)n2)c1 (stereo not drawn)	-6.77%
CNC(=O)C(CC(C)C)NC(=O)c1cccc(-c2n[nH]c(C)n2)c1 (stereo not drawn)	0.903%
Brc1ccc(CN2CCC(NCc3ncc[nH]3)CC2)cc1	-0.173%
COC(=O)[C@H](C)NC(=O)Cc1c(C)nc2cc(=O)[nH]n2c1C	-7.8%
CS(=O)(=O)NCc1ccc2c(c1)CCC2	-7.69%
CC(C)c1noc(CCC(=O)N(CC2CCOC2)C2CC2)n1 (stereo not drawn)	-8.06%
Cc1ccc(N2CCCN(C(=O)C(C)OCC3CC3)CC2)nn1 (stereo not drawn)	-11.3%
CC(C)(C)c1nnc(CSc2ccccn2)o1	-6.49%
CCc1nnc(CSc2ccccn2)o1	-9.38%
Clc1cc(Cl)cc(CN2CCC(NCc3cc[nH]n3)CC2)c1	-4.79%
CC(C)(C)CN(CCC#N)C(=O)c1cccc(CN2CCCC2)c1	4.22%
CCn1cc(NC(=O)NCCN2CCCCCC2=O)cn1	-6.34%
CCCn1ccnc1-c1cccc(NC2CCOC2)c1 (stereo not drawn)	-1.36%
CCCN(Cc1nnnn1C1CC1)CC1COc2ccccc2O1 (stereo not drawn)	0.609%
O=C(NCc1nnc2n1CCC2)c1cn(-c2ccccc2Br)nn1	-2.93%
N#Cc1cccnc1NCCc1cc(F)cc2c1OCOC2	24%
O=C(Cc1c(F)cccc1Cl)NC1CCCCNC1=O (stereo not drawn)	-5.89%
Cc1ccc(-n2cc(C(=O)NCc3nnc4n3CCCCC4)nn2)cc1	-3.85%
CCn1cc(NC(=O)NCCN2CCCc3ccccc32)cn1	0.821%
FC(F)(F)Oc1cccc(CNCc2ccc(-n3cncn3)nc2)c1	26.6%

SMILES	cytotoxicity at 70.5 h
CC(C)C(CCO)NC(=O)Nc1ccc(-c2csnn2)cc1 (stereo not drawn)	-5.31%
COc1cccc(F)c1C(C)NC(=O)NCc1cnc(C)s1 (stereo not drawn)	-1.56%
CC(C)(C)NC(=O)CNc1ncc(Br)cn1	0.722%
N#Cc1cc(S(N)(=O)=O)ccc1N1CCc2c(Cl)cccc2C1	42.5%
COc1c(C(=O)NC(C)Cc2ccccc2Cl)c(C)nn1C (stereo not drawn)	3.5%
O=S(=O)(NC1CCOC1)c1ccc(C(F)(F)F)nc1 (stereo not drawn)	-2.28%
CCN(CCNS(=O)(=O)N1CCOCC1)C(=O)OC(C)(C)C	30.7%
CCCn1nnnc1CN(CC)CC1COc2ccccc2O1 (stereo not drawn)	2.13%
Cc1nccn1-c1cccc(N2CCC(OCC3CCCCO3)CC2)n1 (stereo not drawn)	-11.6%
COC(=O)c1ncccc1N1CCCCC1	-6.28%
CC(C)Oc1cccc(CN(C)C(=O)Cc2ccon2)c1	4.02%
CN(CC(O)C(F)(F)F)C(=O)Nc1cccc(C(F)F)c1 (stereo not drawn)	-7.43%
Clc1cccc(C(CNCc2cccnc2)N2CCOCC2)c1 (stereo not drawn)	29.7%
Cc1cnccc1-c1cnn(CCNC(=O)c2ccccn2)c1C1CC1	27.5%
Cc1cnccc1-c1cnn(CCNC(=O)c2cccnc2)c1C1CC1	-5.95%
Cc1cnccc1-c1cnn(CCNC(=O)c2ccncc2)c1C1CC1	17.4%
Cc1cnccc1-c1cnn(CCNC(=O)C(C)(C)C)c1C1CC1	-9.87%
CCOC(=O)C1(Cc2ccccc2-c2ccccc2OC)CCNCC1	11%
CC(C)c1cc(C(=O)NCC2CCCN(C(C)C)C2)n(C)n1 (stereo not drawn)	-0.374%
Cc1cccc(CNC(Cc2ccsc2)c2nc(C)c(C)s2)n1 (stereo not drawn)	1.1%
CN(Cc1ccnc2ccccc12)C1CCS(=O)(=O)C1 (stereo not drawn)	-6.17%
CCn1ccc2ccnc(CC3CN(C(=O)Cn4ccnc4C)C3)c21	-5.67%
